Assays:
[1] = for viscosity / mass density: 101 kPa, Liquid; for viscosity: Falling or rolling sphere viscometry; for mass density: Vibrating tube method
[2] = activity coefficient (dimensionless); of the first substance listed, at infinite dilution; xn = mol fraction of the nth substance listed; conditions: 101.33 kPa, Liquid, Chromatography, x1 = 0

N#C[N-]C#N.OCCC[n+]1ccccc1 [N-(3-hydroxypropyl)pyridinium dicyanamide]
[1]
Conditions	mass density [kg/m3]	viscosity [mPa·s]
298.15 K	1171.01	115
303.15 K	1167.78	–
308.15 K	1164.58	70.8
313.15 K	1161.4	–
318.15 K	1158.23	47.1
323.15 K	1155.09	–
328.15 K	1151.97	32.9
333.15 K	1148.86	–
338.15 K	1145.77	23.4
343.15 K	1142.69	–
348.15 K	1139.63	17.8
353.15 K	1136.59	–
358.15 K	1133.57	14
363.15 K	1130.58	–
368.15 K	1127.62	–

Conditions	Glass transition temperature [°C]
[1], Glass, DSC	-81

CCC(=O)OC [methyl propanoate] + N#C[N-]C#N.OCCC[n+]1ccccc1
[2]
Conditions	activity coefficient
318.15 K	5.77
328.15 K	5.99
338.15 K	6.2
348.15 K	6.42
358.15 K	6.61
368.15 K	6.81

C1COCCO1 [1,4-dioxane] + N#C[N-]C#N.OCCC[n+]1ccccc1
[2]
Conditions	activity coefficient
318.15 K	1.74
328.15 K	1.86
338.15 K	1.99
348.15 K	2.12
358.15 K	2.25
368.15 K	2.38

C#CCCC [1-pentyne] + N#C[N-]C#N.OCCC[n+]1ccccc1
[2]
Conditions	activity coefficient
298.15 K	11.1
308.15 K	11.6
318.15 K	12.1
328.15 K	12.6
338.15 K	13.1
348.15 K	13.5
358.15 K	14

CCCCO [butan-1-ol] + N#C[N-]C#N.OCCC[n+]1ccccc1
[2]
Conditions	activity coefficient
318.15 K	3.29
328.15 K	3.23
338.15 K	3.18
348.15 K	3.13
358.15 K	3.09
368.15 K	3.05

— the NIST ThermoML archive (doi:10.1016/j.jct.2017.03.004)
